We go through one compound from patent publication US20100119458A1, “Compositions Containing Metal Oxide Particles and Their Use” (Spago Imaging AB, priority 2007, published 2010).

This test can be described thus: MRI measurements of relaxation rates and relaxivities. The class given is physicochemical. The source says:
where ρ=spin density, TE=echo time and TR=repetition time. Contrast agents that are paramagnetic are used to improve the resolution in the images. They have effects on both T1 and T2 but some agents have predominant effects on either T1 or T2. […] Gadolinium (III+) has a predominant effect on T1 and therefore has been used a positive contrast agent (increased MR signal). Iron (III+) has a predominant effect on T2 and has therefore been used as a negative contrast agent (decreased MR signal). The relaxation rate (1/Ti, i=1,2 for hydrogen) observed is proportional to the concentration C of a contrast agent used, i.e.
1/Ti(observed)=1/Ti(inherent)+riC
where 1/Ti (observed) is the relaxation rate in the presence of the contrast agent, 1/Ti (inherent) is the inherent tissue relaxation rate, and the proportionality constant ri is called the relaxivity constant for the contrast agent concerned. See Engström et al (Magn Reson Mater Phy 19 (2006) 180-186 and WO 2006031190 (Uvdal et al) and references cited therein.
15 MRI measurements: See Engström et al., Magn Reson Mater Phy, 19 (2006) 180-186.

Regarding `O=C([O-])CN(CCN(CC(=O)[O-])CC(=O)O)CCN(CC(=O)[O-])CC(=O)O.[Gd+3]` [Gd^3+-DTPA], the “1/T1 (1 mM)” value (relaxation rate at 1 mM) turned out to be 0.005 ms^−1. Besides, the 1/T2 result (relaxation rate, stated in words) was “lower values”.
